The source of these data is PMC4490784, “Compensatory induction of MYC expression by sustained CDK9 inhibition via a BRD4-dependent mechanism” (eLife, 2015).

For assay [1], the target named is JAK2(JH1domain-catalytic) (Homo sapiens, UniProt O60674). Description: biochemical binding or enzymatic assay. The settings on record: Novartis. Also on record: JAK2(JH1domain-catalytic). How it is done:
Finally, the selectivity profile of i-CDK9 toward other non-CDK kinases was also assessed using the KINOMEscan platform. […] Except for CLK4, for which no suitable assay was available, the rest of the kinases plus a selected group of others were re-examined for the concentration-dependent effect of i-CDK9 in either functional kinase assays or binding assays. […] Indeed, it has recently been reported that DYRK1A acts as a Pol II CTD Kinase at its target gene promoters ([Di Vona et al., 2015]).

The next assay addresses CDK9-CycT1 (Homo sapiens, UniProt P50750). Description: In vitro kinase assay with CDK7tide, effect of BRD4 on response to i-CDK9. The class given is biochemical. How it is done: The reactions were stopped by adding 60 mM EDTA plus 0.01% Tween 20. After the addition of AlphaScreen beads (PerkinElmer) and detection antibody (Cell Signaling Technology, #4735) followed by overnight incubation at room temperature, the plates were read on an Envision 2101 (PerkinElmer).

The target in another assay is IRAK4 (Homo sapiens, UniProt Q9NWZ3). The assay is described as follows: biochemical binding or enzymatic assay. The note with it: Novartis. The gist of the method:
(§1)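 Kinases flagged in a KINOMEscan selectivity screen were retested with i-CDK9 across a range of concentrations. Depending on the kinase, either a functional kinase activity assay or a binding assay was used.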

The target in a further assay is T1, AXL (Homo sapiens, UniProt P30530).
T1 construct: purchased DiscoveRx KINOMEscan
The assay is described as follows: biochemical binding or enzymatic assay. The note with it: Novartis. The procedure, abridged:
as §1

The next assay concerns the target T2, SYK (Homo sapiens, UniProt P43405).
T2 construct: purchased DiscoveRx KINOMEscan
Description: biochemical binding or enzymatic assay. The note with it: Novartis. The procedure, abridged: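 First, non-CDK kinase selectivity was profiled on the KINOMEscan platform. Hits were then re-examined for concentration-dependent inhibition by i-CDK9, in enzymatic or binding format.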

The next assay concerns the target T3, MAPKAPK2 (Homo sapiens, UniProt P49137).
T3 construct: purchased DiscoveRx KINOMEscan
The assay is described as follows: biochemical binding or enzymatic assay. The note with it: Novartis. The gist of the method:
as §1

A further assay has as its target T4, MET (Homo sapiens, UniProt P08581).
T4 construct: purchased DiscoveRx KINOMEscan
The assay is described as follows: biochemical binding or enzymatic assay. The note with it: Novartis. The gist of the method:
as §1

For a further assay, the target named is T5, MAPKAPK5 (Homo sapiens, UniProt Q8IW41).
T5 construct: purchased DiscoveRx KINOMEscan
T5 sequence (Q8IW41 1-473): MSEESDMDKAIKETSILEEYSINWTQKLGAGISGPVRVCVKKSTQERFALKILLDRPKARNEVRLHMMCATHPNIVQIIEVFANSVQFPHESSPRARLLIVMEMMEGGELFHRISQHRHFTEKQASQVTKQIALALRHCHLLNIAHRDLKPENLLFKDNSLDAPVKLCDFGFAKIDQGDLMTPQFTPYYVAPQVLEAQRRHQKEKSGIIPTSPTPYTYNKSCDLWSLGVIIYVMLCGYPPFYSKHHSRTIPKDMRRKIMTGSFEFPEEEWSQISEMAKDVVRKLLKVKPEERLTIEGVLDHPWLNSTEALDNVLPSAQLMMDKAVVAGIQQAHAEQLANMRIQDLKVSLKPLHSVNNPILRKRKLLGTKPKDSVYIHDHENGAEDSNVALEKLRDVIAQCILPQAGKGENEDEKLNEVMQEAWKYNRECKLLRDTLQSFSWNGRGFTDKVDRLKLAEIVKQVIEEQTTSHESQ
The assay is described as follows: biochemical binding or enzymatic assay. The settings on record: Novartis. The procedure, abridged:
as §1

In the next assay the target is T6, GSK3B (Homo sapiens, UniProt P49841).
T6 construct: purchased DiscoveRx KINOMEscan
T6 sequence (P49841 whole entry): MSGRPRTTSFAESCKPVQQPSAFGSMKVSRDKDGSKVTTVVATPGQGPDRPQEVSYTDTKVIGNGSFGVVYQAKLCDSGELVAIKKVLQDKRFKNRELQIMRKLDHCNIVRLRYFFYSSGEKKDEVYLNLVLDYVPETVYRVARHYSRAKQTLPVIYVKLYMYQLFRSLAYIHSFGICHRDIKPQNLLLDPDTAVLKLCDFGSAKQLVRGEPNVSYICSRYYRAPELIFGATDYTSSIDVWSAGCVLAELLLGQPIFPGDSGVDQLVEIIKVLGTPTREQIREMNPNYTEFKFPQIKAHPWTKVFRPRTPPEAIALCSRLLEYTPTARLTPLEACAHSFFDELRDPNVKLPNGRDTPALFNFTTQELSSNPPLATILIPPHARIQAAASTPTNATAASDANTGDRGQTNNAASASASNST
Description: biochemical binding or enzymatic assay. The note with it: Novartis. The procedure, abridged: as §1

The target in assay [2] is T7, affinity-purified CDK9-F-CycT (Homo sapiens, UniProt P50750).
T7 construct: made in house; host or cells: probably the HeLa-based F1C2 cells
T7 sequence (P50750 whole entry): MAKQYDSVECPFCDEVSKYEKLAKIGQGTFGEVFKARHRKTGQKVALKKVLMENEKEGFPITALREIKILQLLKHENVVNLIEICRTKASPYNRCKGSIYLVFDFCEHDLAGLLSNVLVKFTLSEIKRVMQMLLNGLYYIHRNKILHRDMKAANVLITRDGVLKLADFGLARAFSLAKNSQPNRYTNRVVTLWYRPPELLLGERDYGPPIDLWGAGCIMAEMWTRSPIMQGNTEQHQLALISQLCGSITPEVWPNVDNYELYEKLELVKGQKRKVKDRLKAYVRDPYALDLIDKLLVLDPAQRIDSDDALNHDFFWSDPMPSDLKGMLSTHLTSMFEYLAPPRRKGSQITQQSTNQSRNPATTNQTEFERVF
T7 sequence (O60563 whole entry partner): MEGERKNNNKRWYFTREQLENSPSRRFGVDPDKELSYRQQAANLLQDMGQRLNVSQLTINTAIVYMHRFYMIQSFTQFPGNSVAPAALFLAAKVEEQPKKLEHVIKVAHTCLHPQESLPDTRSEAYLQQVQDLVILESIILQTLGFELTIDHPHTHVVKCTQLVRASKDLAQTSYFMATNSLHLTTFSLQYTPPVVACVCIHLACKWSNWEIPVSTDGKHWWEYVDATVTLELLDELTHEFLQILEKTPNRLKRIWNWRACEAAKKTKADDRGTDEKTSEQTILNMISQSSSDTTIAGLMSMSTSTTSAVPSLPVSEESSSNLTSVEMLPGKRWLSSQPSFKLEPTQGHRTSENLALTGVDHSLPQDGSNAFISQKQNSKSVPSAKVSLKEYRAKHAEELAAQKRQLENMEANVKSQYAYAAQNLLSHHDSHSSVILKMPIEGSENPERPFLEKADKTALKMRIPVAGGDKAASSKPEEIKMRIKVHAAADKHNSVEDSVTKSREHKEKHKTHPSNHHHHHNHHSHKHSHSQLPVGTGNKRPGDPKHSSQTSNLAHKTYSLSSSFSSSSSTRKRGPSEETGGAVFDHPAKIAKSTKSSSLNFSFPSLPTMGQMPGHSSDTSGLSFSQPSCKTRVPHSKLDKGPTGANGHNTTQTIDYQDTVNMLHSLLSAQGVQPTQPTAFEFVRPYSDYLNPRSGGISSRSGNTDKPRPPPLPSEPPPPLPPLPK
Description: In vitro kinase reaction, GST-CTD substrate, pSer2 Western blotting. Type of assay: biochemical. The note with it: read-out: estimated IC50 of Ser2 phosphorylation. As for the experimental part: (§2) Figure 1. i-CDK9 is a potent and selective CDK9 inhibitor that elicits cellular responses indicative of P-TEFb inhibition. (A and B) Structures and selectivity profiles of i-CDK9 (A) and falvopiridol (B). […] (C) In vitro kinase reactions containing affinity-purified CDK9-F-CycT or CDK12-F-CycK and GST-CTD as a substrate were conducted in the presence of the indicated concentrations of i-CDK9. pSer2 and the Flag-tagged kinase in each reaction were detected by Western blotting with anti-pSer2 and anti-Flag antibodies, respectively. (D) HeLa cells were treated for 8 hr with DMSO or the indicated concentrations of i-CDK9. Total cell lysates were examined by immunoblotting for the proteins labeled on the left. DOI: http://dx.doi.org/10.7554/eLife.06535.003 Figure 1—source data 1. Selectivity profile of i-CDK9. DOI: http://dx.doi.org/10.7554/eLife.06535.004 Figure 1—figure supplement 1. Recombinant CDK12-CycK is less sensitive to inhibition by i-CDK9.
(§3) Among all members of the CDK super family, CDK12 deserves special attention because of its reported phosphorylation of the Pol II CTD on Ser2, an ability that is shared with CDK9 ([Bartkowiak et al., 2010]). […] Phosphorylation of Ser2 (pSer2) was detected by Western blotting with a specific antibody.

Assay [3] has as its target T8, affinity-purified CDK12-F-CycK (Homo sapiens, UniProt Q9NYV4).
T8 construct: made in house
The assay is described as above. The class given is biochemical. The settings on record: even at 80 nM. As for the experimental part: as §2, §3

Assay [4] addresses JAK1(JH1domain-catalytic) (Homo sapiens, UniProt P23458). The assay is described as follows: KINOMEscan binding assay. More on the design: JAK1(JH1domain-catalytic); purchased DiscoveRx KINOMEscan. As for the experimental part: As there are no commercial or in-house kinase assays available for CDK3, CDK5, CDK11 and CDK13, the inhibitory abilities of i-CDK9 toward these CDKs were thus evaluated in the DiscoveRx KINOMEscan assay, which is based on a proprietary active site-directed competition-binding platform ([Fabian et al., 2005]).
The inhibitory activity of i-CDK9 for CDK1-CycB (Upstate/Millipore), CDK2-CycA (Invitrogen), CDK4-CycD1 (Novartis), CDK7-CycH-MAT1 (Invitrogen), and CDK9-CycT1 (Invitrogen) was assessed in the AlphaScreen (PerkinElmer, Inc)-based kinase assay developed at Novartis. Briefly, each CDK–cyclin pair was pre-incubated with i-CDK9 for 15 min, followed by addition of kinase substrates (ELK for CDK1 and CDK2, RB for CDK4, and CDK7tide for CDK7 and CDK9). The mixture was incubated at room temperature for additional 4–5 hr. The reaction was stopped and read on Envision (PerkinElmer, Inc). Selectivity against a large panel of over 400 kinases was evaluated using the KINOMEscan platform (DiscoveRx, CA) employing a proprietary active site-directed competition binding assay ([Fabian et al., 2005]). The assay was conducted at two different concentrations of i-CDK9 (1 and 10 µM) by DiscoveRx.

Chain of CDK9-CycT1 (P50750 whole entry): as the sequence (P50750 whole entry) above
Chain of CDK9-CycT1 (O60563 whole entry partner): as the sequence (O60563 whole entry partner) above
Chain of JAK1(JH1domain-catalytic) (P23458 854-1154 limits assumed): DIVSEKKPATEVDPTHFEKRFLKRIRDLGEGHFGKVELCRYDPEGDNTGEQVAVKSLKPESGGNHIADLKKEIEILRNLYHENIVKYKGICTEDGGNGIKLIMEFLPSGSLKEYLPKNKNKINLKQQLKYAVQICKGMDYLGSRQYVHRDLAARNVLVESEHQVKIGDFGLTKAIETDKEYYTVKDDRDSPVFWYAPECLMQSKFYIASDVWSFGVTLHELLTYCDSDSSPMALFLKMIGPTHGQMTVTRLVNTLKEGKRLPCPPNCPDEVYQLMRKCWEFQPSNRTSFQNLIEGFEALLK
Chain of IRAK4 (Q9NWZ3 whole entry): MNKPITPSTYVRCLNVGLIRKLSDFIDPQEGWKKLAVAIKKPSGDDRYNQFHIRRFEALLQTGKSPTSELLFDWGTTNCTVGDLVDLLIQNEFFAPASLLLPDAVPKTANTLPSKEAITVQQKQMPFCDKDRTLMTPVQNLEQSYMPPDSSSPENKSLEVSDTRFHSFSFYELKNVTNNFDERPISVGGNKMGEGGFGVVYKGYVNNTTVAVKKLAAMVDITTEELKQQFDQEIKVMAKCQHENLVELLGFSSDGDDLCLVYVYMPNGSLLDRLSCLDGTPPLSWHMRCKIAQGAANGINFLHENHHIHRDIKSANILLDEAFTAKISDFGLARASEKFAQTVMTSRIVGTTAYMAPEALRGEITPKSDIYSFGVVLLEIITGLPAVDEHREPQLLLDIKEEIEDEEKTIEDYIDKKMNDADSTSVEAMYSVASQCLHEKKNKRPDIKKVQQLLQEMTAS
T8 sequence (Q9NYV4 whole entry): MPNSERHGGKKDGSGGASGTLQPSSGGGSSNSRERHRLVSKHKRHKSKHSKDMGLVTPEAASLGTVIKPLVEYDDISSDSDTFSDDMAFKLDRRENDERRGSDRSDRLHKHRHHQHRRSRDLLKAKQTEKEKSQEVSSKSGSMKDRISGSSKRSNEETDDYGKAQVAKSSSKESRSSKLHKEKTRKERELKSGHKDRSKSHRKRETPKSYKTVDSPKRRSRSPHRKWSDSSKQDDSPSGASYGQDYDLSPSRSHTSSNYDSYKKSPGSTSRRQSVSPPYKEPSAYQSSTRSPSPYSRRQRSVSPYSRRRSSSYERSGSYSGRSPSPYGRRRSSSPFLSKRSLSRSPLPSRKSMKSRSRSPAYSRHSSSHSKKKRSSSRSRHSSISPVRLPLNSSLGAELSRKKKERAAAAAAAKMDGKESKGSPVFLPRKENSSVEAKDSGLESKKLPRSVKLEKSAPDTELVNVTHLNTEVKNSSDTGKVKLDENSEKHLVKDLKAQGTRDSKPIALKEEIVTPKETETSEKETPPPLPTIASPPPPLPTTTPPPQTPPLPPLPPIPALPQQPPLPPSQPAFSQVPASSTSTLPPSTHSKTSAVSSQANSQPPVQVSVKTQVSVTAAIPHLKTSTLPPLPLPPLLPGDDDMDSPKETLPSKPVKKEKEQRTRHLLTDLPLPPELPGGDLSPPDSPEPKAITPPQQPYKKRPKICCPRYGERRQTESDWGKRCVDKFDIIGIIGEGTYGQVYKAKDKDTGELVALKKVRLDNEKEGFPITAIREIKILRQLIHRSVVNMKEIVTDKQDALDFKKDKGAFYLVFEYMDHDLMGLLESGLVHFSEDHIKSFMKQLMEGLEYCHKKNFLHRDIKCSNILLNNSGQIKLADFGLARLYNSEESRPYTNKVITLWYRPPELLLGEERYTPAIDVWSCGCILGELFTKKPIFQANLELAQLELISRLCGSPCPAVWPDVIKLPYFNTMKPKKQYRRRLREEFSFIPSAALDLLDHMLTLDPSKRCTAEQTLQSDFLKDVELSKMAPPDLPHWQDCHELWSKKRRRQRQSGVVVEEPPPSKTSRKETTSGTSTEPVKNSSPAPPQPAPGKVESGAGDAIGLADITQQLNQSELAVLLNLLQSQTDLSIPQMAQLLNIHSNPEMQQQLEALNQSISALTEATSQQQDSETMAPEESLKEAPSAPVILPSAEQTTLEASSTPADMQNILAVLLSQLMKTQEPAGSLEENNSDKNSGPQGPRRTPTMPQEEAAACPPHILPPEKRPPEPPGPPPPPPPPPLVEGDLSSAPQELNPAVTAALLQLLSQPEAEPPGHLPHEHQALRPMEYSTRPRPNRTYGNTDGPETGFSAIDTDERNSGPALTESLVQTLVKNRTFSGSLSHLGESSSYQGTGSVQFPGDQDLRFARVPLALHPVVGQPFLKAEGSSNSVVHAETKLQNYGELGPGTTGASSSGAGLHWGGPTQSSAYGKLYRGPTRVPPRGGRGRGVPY
T8 sequence (O75909 whole entry partner): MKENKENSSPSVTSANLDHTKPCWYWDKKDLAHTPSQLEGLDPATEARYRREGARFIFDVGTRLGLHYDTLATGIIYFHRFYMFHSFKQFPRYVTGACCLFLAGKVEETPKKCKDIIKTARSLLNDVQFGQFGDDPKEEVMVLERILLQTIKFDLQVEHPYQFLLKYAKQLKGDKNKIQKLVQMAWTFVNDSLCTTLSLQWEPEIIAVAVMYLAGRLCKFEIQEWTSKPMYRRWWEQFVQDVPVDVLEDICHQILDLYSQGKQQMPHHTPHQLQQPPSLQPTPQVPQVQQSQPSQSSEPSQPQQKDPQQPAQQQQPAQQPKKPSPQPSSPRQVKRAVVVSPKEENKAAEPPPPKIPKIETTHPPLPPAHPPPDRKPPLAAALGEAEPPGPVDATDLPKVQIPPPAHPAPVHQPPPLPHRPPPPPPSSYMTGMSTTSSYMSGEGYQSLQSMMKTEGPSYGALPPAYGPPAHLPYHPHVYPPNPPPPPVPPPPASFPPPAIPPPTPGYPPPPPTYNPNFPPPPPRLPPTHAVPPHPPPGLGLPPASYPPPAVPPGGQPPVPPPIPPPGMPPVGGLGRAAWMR
T3 sequence (P49137 whole entry): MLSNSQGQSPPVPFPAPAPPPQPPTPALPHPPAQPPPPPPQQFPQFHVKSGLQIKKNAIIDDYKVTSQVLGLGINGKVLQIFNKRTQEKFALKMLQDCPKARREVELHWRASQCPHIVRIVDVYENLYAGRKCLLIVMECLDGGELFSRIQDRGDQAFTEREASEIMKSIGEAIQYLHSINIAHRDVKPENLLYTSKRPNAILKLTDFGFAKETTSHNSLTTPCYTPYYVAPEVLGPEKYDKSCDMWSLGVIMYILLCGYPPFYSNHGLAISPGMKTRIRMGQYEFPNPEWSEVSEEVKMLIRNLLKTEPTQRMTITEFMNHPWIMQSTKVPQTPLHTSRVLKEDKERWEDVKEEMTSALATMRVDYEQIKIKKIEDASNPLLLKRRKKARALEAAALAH

On to `N[C@H]1CC[C@H](Nc2cc(-c3cccc(NCc4cccc(F)c4)n3)c(Cl)cn2)CC1` [i-CDK9, N2′-(trans-4-aminocyclohexyl)-5′-chloro-N6-(3-fluorobenzyl)-2,4′-bipyridine-2′,6-diamine], for which the half-inhibitory concentration (IC50) (commonly the concentration at which inhibition is half-maximal) is over 10 µM in assay [1]; 0.0147 ± 0.0021 µM at CDK9-CycT1 (CDK9/CycT1 + WT BRD4); 0.0072 ± 0.0006 µM at CDK9-CycT1 (CDK9/CycT1 + ΔPID BRD4); 0.0044 ± 0.0007 µM on CDK9-CycT1 (CDK9/CycT1, absence of BRD4); over 10 µM at IRAK4; over 10 µM at AXL. Further, the IC50 at SYK was over 10 µM; on MAPKAPK2, over 10 µM; on MET it was over 10 µM; on MAPKAPK5 it was over 10 µM; on GSK3B, 1.6 µM; in assay [2], about 0.002 µM. Further, in assay [3], the “inhibition of Ser2 phosphorylation” value is reported as “no obvious inhibition”. Also, the “% Retention on Solid Support” value in assay [4] (1 µM i-CDK9) and in assay [4] (10 µM i-CDK9) was 100% throughout.
